Results: patent US9340590B2 (priority 2011, dated 2016)
pIC50: −log10 of the molar value. Read-outs that look alike come from different tables or passages of the source. Positions of bridges follow the written chain, without caps; N, C: chain ends. Non-standard residues stand in square brackets, D forms with d. Residues, ends and D or L forms follow the SMILES beside them. 2Pal = N[C@@H](Cc1ccccn1)C(=O)O

How the values were obtained:
Assay in all cases: cell-based
[1] = molecular target: hNav1.7 (Homo sapiens, UniProt Q15858); type: cell-based; conditions: Table 26; IonWorks Quattro, use; […]; read-out: IWQ Use Nav1.7
[2] = molecular target: hNav1.5 (Homo sapiens, UniProt Q14524); conditions: for pIC50: Table 26, IonWorks Quattro, use, read-out: IWQ Use Nav1.5; for IC50: IWQ Use Nav1.5 (μM)
Sequence of hNav1.5 (Q14524 whole entry, looked up): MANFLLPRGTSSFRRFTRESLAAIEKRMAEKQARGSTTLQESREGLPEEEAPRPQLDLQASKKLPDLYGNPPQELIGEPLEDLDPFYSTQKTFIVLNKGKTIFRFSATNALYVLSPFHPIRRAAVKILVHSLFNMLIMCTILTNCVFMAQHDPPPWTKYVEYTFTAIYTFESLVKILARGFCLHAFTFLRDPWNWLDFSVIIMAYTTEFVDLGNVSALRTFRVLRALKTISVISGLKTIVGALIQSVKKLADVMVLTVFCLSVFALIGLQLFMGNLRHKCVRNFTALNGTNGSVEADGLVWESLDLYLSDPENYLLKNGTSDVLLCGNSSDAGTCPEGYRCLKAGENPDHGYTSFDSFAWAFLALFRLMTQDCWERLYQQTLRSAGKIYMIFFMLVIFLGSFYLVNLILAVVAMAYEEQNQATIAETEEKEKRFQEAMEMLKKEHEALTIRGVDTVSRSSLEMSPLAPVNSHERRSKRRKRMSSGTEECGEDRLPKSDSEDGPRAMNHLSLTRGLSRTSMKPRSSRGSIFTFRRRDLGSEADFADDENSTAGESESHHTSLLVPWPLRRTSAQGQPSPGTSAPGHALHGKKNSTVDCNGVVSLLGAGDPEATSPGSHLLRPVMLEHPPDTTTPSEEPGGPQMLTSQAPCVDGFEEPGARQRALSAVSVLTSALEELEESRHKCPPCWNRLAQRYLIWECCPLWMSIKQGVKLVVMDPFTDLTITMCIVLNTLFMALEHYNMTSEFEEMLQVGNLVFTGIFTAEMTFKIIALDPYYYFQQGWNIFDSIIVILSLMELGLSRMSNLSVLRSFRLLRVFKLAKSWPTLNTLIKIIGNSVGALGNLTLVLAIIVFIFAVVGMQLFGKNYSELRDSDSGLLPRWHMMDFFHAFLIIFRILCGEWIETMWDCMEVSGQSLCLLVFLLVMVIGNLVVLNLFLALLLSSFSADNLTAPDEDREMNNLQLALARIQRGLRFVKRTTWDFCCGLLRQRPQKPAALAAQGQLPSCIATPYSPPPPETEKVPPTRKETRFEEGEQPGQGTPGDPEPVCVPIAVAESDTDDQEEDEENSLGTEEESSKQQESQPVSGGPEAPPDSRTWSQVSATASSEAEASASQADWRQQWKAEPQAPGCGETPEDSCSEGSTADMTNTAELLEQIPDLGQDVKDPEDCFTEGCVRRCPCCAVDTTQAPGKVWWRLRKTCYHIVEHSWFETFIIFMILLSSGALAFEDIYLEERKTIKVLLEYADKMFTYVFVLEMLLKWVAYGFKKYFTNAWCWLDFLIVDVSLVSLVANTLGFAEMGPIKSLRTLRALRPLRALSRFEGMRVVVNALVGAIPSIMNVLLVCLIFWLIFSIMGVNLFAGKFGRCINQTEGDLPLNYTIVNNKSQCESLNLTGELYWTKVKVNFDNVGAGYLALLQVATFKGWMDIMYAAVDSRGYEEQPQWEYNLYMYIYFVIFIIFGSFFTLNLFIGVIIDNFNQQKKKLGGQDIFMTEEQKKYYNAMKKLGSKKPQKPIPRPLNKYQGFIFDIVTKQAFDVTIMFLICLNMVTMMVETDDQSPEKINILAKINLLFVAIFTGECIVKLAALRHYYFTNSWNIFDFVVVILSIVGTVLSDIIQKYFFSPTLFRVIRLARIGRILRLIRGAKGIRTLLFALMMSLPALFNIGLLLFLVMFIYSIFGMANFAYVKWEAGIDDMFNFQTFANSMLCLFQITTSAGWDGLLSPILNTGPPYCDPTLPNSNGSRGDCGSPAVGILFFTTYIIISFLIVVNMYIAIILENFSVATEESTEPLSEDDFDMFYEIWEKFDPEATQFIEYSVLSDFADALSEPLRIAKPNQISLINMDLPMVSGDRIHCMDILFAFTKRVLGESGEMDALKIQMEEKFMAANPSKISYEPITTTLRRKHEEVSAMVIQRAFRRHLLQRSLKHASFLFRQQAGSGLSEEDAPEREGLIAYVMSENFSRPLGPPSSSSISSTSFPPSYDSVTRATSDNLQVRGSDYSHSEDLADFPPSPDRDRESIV

[3] = molecular target: hNav1.3 (Homo sapiens, UniProt Q9NY46); conditions: Table 26; IonWorks Quattro, use; […]; read-out: IWQ Use Nav1.3
Sequence of hNav1.3 (Q9NY46 whole entry, looked up): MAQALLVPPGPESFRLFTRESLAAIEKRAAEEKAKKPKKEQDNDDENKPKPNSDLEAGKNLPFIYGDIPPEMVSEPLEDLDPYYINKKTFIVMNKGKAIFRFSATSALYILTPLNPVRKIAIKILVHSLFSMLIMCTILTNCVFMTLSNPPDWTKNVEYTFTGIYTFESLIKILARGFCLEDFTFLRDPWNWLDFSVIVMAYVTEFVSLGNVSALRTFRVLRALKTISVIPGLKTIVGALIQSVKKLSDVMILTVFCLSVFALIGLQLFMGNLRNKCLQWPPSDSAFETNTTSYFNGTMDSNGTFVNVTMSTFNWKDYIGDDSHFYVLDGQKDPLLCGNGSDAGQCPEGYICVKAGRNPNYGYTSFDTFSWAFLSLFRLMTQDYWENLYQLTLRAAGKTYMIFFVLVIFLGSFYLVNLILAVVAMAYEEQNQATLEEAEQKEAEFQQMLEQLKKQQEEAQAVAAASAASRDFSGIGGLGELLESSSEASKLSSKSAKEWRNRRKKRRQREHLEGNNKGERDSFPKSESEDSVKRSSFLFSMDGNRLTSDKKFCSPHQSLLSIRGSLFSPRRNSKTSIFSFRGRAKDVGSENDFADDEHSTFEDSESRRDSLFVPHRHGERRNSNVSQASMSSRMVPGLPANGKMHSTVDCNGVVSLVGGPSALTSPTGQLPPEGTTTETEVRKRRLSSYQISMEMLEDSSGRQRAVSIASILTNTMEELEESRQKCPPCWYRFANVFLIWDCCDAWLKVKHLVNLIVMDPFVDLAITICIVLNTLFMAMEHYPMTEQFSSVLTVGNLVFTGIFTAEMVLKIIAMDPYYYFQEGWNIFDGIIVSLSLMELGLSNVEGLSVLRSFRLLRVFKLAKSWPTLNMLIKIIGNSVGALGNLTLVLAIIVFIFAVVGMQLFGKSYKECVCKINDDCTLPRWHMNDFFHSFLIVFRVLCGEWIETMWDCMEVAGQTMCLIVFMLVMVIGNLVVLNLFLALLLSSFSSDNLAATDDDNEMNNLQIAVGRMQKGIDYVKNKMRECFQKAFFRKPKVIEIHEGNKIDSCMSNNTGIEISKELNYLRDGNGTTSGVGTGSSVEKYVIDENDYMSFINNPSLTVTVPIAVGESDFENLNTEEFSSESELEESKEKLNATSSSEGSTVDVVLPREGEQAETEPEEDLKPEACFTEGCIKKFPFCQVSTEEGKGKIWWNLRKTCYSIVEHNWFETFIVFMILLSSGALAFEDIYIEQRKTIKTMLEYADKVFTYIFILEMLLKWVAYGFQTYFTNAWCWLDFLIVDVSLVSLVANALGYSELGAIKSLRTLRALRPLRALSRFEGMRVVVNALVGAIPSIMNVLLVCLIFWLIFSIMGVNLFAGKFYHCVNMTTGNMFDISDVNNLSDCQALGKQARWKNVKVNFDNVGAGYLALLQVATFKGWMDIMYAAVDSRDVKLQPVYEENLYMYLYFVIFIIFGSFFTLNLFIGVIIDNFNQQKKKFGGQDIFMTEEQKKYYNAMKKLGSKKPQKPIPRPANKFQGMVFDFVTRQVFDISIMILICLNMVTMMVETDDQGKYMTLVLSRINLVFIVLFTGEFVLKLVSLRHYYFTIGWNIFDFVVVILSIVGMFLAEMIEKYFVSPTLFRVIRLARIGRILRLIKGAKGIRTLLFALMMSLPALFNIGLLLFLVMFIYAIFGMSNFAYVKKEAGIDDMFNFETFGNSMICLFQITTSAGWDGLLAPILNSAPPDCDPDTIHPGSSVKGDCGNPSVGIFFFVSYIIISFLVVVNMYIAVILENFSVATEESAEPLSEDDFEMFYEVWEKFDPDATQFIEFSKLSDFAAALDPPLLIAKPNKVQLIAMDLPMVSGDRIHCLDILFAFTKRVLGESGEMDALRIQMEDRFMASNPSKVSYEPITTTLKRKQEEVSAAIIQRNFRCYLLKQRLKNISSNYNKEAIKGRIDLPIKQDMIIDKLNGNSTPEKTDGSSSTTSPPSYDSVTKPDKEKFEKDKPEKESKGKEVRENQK

SMILES | pIC50 [1] | pIC50 [2] | pIC50 [3] | IC50 [2] [µM]
CC[C@H](C)[C@@H]1NC(=O)[C@@H]2CSSC[C@@H]3NC(=O)[C@H](C(C)C)NC(=O)[C@H](CC(C)C)NC(=O)[C@H](CC(N)=O)NC(=O)[C@@H]4CCCN4C(=O)[C@H](CCCNC(=N)N)NC(=O)[C@H](CSSC[C@H](NC(=O)[C@@H](N)CC(=O)O)C(=O)N[C@@H](CC(C)C)C(=O)NCC(=O)N[C@@H](Cc4ccccc4)C(=O)N[C@@H](CCSC)C(=O)N[C@@H](CCCNC(=N)N)C(=O)N[C@@H](CCCCN)C(=O)N2)NC(=O)[C@H](CSSC[C@@H](C(=O)N[C@@H](CCCCN)C(=O)N[C@@H](Cc2ccc(O)cc2)C(=O)N[C@@H](CC(=O)O)C(=O)N[C@@H](Cc2ccccc2)C(N)=O)NC(=O)[C@H](Cc2c[nH]c4ccccc24)NC(=O)[C@H](CCCCN)NC(=O)[C@H](Cc2c[nH]cn2)NC(=O)[C@H]([C@@H](C)O)NC(=O)[C@H](CCCNC(=N)N)NC(=O)[C@H](CO)NC3=O)NC(=O)[C@H](CCCCN)NC(=O)[C@H](CC(=O)O)NC(=O)[C@H](CC(N)=O)NC(=O)[C@H](CC(=O)O)NC(=O)[C@@H]2CCCN2C1=O [compound 395] (H-DCLGFMRKCIPDNDKCCRPNLVCSRTHKWCKYDF-NH2; disulfide 2-17, 9-23, 16-30) | 6.11 | 5.06 | 6.77 | 
CC[C@H](C)[C@@H]1NC(=O)[C@@H]2CSSC[C@@H]3NC(=O)[C@H](C(C)C)NC(=O)[C@H](CC(C)C)NC(=O)[C@H](CC(N)=O)NC(=O)[C@@H]4CCCN4C(=O)[C@H](CCCNC(=N)N)NC(=O)[C@H](CSSC[C@H](NC(=O)[C@@H](N)CC(=O)O)C(=O)N[C@@H](CC(C)C)C(=O)NCC(=O)N[C@@H](Cc4ccccc4)C(=O)N[C@@H](CCSC)C(=O)N[C@@H](CCCNC(=N)N)C(=O)N[C@@H](CCCCN)C(=O)N2)NC(=O)[C@H](CSSC[C@@H](C(=O)N[C@@H](CCCCN)C(=O)N[C@@H](Cc2ccc(O)cc2)C(=O)N[C@H](C(=O)N[C@@H](Cc2ccccc2)C(N)=O)[C@@H](C)O)NC(=O)[C@H](Cc2c[nH]c4ccccc24)NC(=O)[C@H](CCCCN)NC(=O)[C@H](Cc2c[nH]cn2)NC(=O)[C@H]([C@@H](C)O)NC(=O)[C@H](CCCNC(=N)N)NC(=O)[C@H](CO)NC3=O)NC(=O)[C@H](CCCCN)NC(=O)[C@H](CC(=O)O)NC(=O)[C@H](CC(N)=O)NC(=O)[C@H](CC(=O)O)NC(=O)[C@@H]2CCCN2C1=O [compound 396] (H-DCLGFMRKCIPDNDKCCRPNLVCSRTHKWCKYTF-NH2; disulfide 2-17, 9-23, 16-30) | 7.70 | 5.42 | 7.40 | 
CC[C@H](C)[C@@H]1NC(=O)[C@@H]2CSSC[C@@H]3NC(=O)[C@H](C(C)C)NC(=O)[C@H](CC(C)C)NC(=O)[C@H](CC(N)=O)NC(=O)[C@@H]4CCCN4C(=O)[C@H](CCCNC(=N)N)NC(=O)[C@H](CSSC[C@H](NC(=O)[C@@H](N)CC(=O)O)C(=O)N[C@@H](CC(C)C)C(=O)NCC(=O)N[C@@H](Cc4ccccc4)C(=O)N[C@@H](CCSC)C(=O)N[C@@H](CCCNC(=N)N)C(=O)N[C@@H](CCCCN)C(=O)N2)NC(=O)[C@H](CSSC[C@@H](C(=O)N[C@@H](CCCCN)C(=O)N[C@@H](Cc2ccc(O)cc2)C(=O)N[C@@H](CO)C(=O)N[C@@H](Cc2ccccc2)C(N)=O)NC(=O)[C@H](Cc2c[nH]c4ccccc24)NC(=O)[C@H](CCCCN)NC(=O)[C@H](Cc2c[nH]cn2)NC(=O)[C@H]([C@@H](C)O)NC(=O)[C@H](CCCNC(=N)N)NC(=O)[C@H](CO)NC3=O)NC(=O)[C@H](CCCCN)NC(=O)[C@H](CC(=O)O)NC(=O)[C@H](CC(N)=O)NC(=O)[C@H](CC(=O)O)NC(=O)[C@@H]2CCCN2C1=O [compound 397] (H-DCLGFMRKCIPDNDKCCRPNLVCSRTHKWCKYSF-NH2; disulfide 2-17, 9-23, 16-30) | 7.40 | 5.20 | 7.22 | 
CC[C@H](C)[C@@H]1NC(=O)[C@@H]2CSSC[C@@H]3NC(=O)[C@H](C(C)C)NC(=O)[C@H](CC(C)C)NC(=O)[C@H](CC(N)=O)NC(=O)[C@@H]4CCCN4C(=O)[C@H](CCCNC(=N)N)NC(=O)[C@H](CSSC[C@H](NC(=O)[C@@H](N)CC(=O)O)C(=O)N[C@@H](CC(C)C)C(=O)NCC(=O)N[C@@H](Cc4ccccc4)C(=O)N[C@@H](CCSC)C(=O)N[C@@H](CCCNC(=N)N)C(=O)N[C@@H](CCCCN)C(=O)N2)NC(=O)[C@H](CSSC[C@@H](C(=O)N[C@@H](CCCCN)C(=O)N[C@@H](Cc2ccc(O)cc2)C(=O)N2CCC[C@H]2C(=O)N[C@@H](Cc2ccccc2)C(N)=O)NC(=O)[C@H](Cc2c[nH]c4ccccc24)NC(=O)[C@H](CCCCN)NC(=O)[C@H](Cc2c[nH]cn2)NC(=O)[C@H]([C@@H](C)O)NC(=O)[C@H](CCCNC(=N)N)NC(=O)[C@H](CO)NC3=O)NC(=O)[C@H](CCCCN)NC(=O)[C@H](CC(=O)O)NC(=O)[C@H](CC(N)=O)NC(=O)[C@H](CC(=O)O)NC(=O)[C@@H]2CCCN2C1=O [compound 398] (H-DCLGFMRKCIPDNDKCCRPNLVCSRTHKWCKYPF-NH2; disulfide 2-17, 9-23, 16-30) | 5.28 | 5.16 | 5.48 | 
CC[C@H](C)[C@@H]1NC(=O)[C@@H]2CSSC[C@@H]3NC(=O)[C@H](C(C)C)NC(=O)[C@H](CC(C)C)NC(=O)[C@H](CC(N)=O)NC(=O)[C@@H]4CCCN4C(=O)[C@H](CCCNC(=N)N)NC(=O)[C@H](CSSC[C@H](NC(=O)[C@@H](N)CC(=O)O)C(=O)N[C@@H](CC(C)C)C(=O)NCC(=O)N[C@@H](Cc4ccccc4)C(=O)N[C@@H](CCSC)C(=O)N[C@@H](CCCNC(=N)N)C(=O)N[C@@H](CCCCN)C(=O)N2)NC(=O)[C@H](CSSC[C@@H](C(=O)N[C@@H](CCCCN)C(=O)N[C@@H](Cc2ccc(O)cc2)C(=O)N[C@@H](Cc2ccc(O)cc2)C(=O)N[C@@H](Cc2ccccc2)C(N)=O)NC(=O)[C@H](Cc2c[nH]c4ccccc24)NC(=O)[C@H](CCCCN)NC(=O)[C@H](Cc2c[nH]cn2)NC(=O)[C@H]([C@@H](C)O)NC(=O)[C@H](CCCNC(=N)N)NC(=O)[C@H](CO)NC3=O)NC(=O)[C@H](CCCCN)NC(=O)[C@H](CC(=O)O)NC(=O)[C@H](CC(N)=O)NC(=O)[C@H](CC(=O)O)NC(=O)[C@@H]2CCCN2C1=O [compound 399] (H-DCLGFMRKCIPDNDKCCRPNLVCSRTHKWCKYYF-NH2; disulfide 2-17, 9-23, 16-30) | 7.15 | < 5.30 | 7.52 | 
CC[C@H](C)[C@@H]1NC(=O)[C@@H]2CSSC[C@@H]3NC(=O)[C@H](C(C)C)NC(=O)[C@H](CC(C)C)NC(=O)[C@H](CC(N)=O)NC(=O)[C@@H]4CCCN4C(=O)[C@H](CCCNC(=N)N)NC(=O)[C@H](CSSC[C@H](NC(=O)[C@@H](N)CC(=O)O)C(=O)N[C@@H](CC(C)C)C(=O)NCC(=O)N[C@@H](Cc4ccccc4)C(=O)N[C@@H](CCSC)C(=O)N[C@@H](CCCNC(=N)N)C(=O)N[C@@H](CCCCN)C(=O)N2)NC(=O)[C@H](CSSC[C@@H](C(=O)N[C@@H](CCCCN)C(=O)N[C@@H](Cc2ccc(O)cc2)C(=O)N[C@@H](CC(C)C)C(=O)N[C@@H](Cc2ccccc2)C(N)=O)NC(=O)[C@H](Cc2c[nH]c4ccccc24)NC(=O)[C@H](CCCCN)NC(=O)[C@H](Cc2c[nH]cn2)NC(=O)[C@H]([C@@H](C)O)NC(=O)[C@H](CCCNC(=N)N)NC(=O)[C@H](CO)NC3=O)NC(=O)[C@H](CCCCN)NC(=O)[C@H](CC(=O)O)NC(=O)[C@H](CC(N)=O)NC(=O)[C@H](CC(=O)O)NC(=O)[C@@H]2CCCN2C1=O [compound 400] (H-DCLGFMRKCIPDNDKCCRPNLVCSRTHKWCKYLF-NH2; disulfide 2-17, 9-23, 16-30) | 6.89 |  | 7.15 | > 5
CC[C@H](C)[C@@H]1NC(=O)[C@@H]2CSSC[C@@H]3NC(=O)[C@H](C(C)C)NC(=O)[C@H](CC(C)C)NC(=O)[C@H](CC(N)=O)NC(=O)[C@@H]4CCCN4C(=O)[C@H](CCCNC(=N)N)NC(=O)[C@H](CSSC[C@H](NC(=O)[C@@H](N)CC(=O)O)C(=O)N[C@@H](CC(C)C)C(=O)NCC(=O)N[C@@H](Cc4ccccc4)C(=O)N[C@@H](CCSC)C(=O)N[C@@H](CCCNC(=N)N)C(=O)N[C@@H](CCCCN)C(=O)N2)NC(=O)[C@H](CSSC[C@@H](C(=O)N[C@@H](CCCCN)C(=O)N[C@@H](Cc2ccc(O)cc2)C(=O)NCC(=O)N[C@@H](Cc2ccccc2)C(N)=O)NC(=O)[C@H](Cc2c[nH]c4ccccc24)NC(=O)[C@H](CCCCN)NC(=O)[C@H](Cc2c[nH]cn2)NC(=O)[C@H]([C@@H](C)O)NC(=O)[C@H](CCCNC(=N)N)NC(=O)[C@H](CO)NC3=O)NC(=O)[C@H](CCCCN)NC(=O)[C@H](CC(=O)O)NC(=O)[C@H](CC(N)=O)NC(=O)[C@H](CC(=O)O)NC(=O)[C@@H]2CCCN2C1=O [compound 401] (H-DCLGFMRKCIPDNDKCCRPNLVCSRTHKWCKYGF-NH2; disulfide 2-17, 9-23, 16-30) | 6.54 |  | 7.40 | > 5
CC[C@H](C)[C@@H]1NC(=O)[C@@H]2CSSC[C@@H]3NC(=O)[C@H](C(C)C)NC(=O)[C@H](CC(C)C)NC(=O)[C@H](CC(N)=O)NC(=O)[C@@H]4CCCN4C(=O)[C@H](CCCNC(=N)N)NC(=O)[C@H](CSSC[C@H](NC(=O)[C@@H](N)CC(=O)O)C(=O)N[C@@H](CC(C)C)C(=O)NCC(=O)N[C@@H](Cc4ccccc4)C(=O)N[C@@H](CCSC)C(=O)N[C@@H](CCCNC(=N)N)C(=O)N[C@@H](CCCCN)C(=O)N2)NC(=O)[C@H](CSSC[C@@H](C(=O)N[C@@H](CCCCN)C(=O)N[C@@H](Cc2ccc(O)cc2)C(=O)N[C@@H](Cc2ccccn2)C(=O)N[C@@H](Cc2ccccc2)C(N)=O)NC(=O)[C@H](Cc2c[nH]c4ccccc24)NC(=O)[C@H](CCCCN)NC(=O)[C@H](Cc2c[nH]cn2)NC(=O)[C@H]([C@@H](C)O)NC(=O)[C@H](CCCNC(=N)N)NC(=O)[C@H](CO)NC3=O)NC(=O)[C@H](CCCCN)NC(=O)[C@H](CC(=O)O)NC(=O)[C@H](CC(N)=O)NC(=O)[C@H](CC(=O)O)NC(=O)[C@@H]2CCCN2C1=O [compound 402] (H-DCLGFMRKCIPDNDKCCRPNLVCSRTHKWCKY[2Pal]F-NH2; disulfide 2-17, 9-23, 16-30) | 6.92 | 5.08 | 6.80 | 
